Test [1] concerns tumor necrosis factor-alpha. In words: LPS-induced tumor necrosis factor-alpha in brain and serum of C57BL/6 mice. The format is in vivo. Conditions: oral KHG25967 10 mg/kg or 20 mg/kg every day for 2 weeks, then LPS 10 mg/kg into brain, 6 hours. The protocol: (§1) The animal experiment was performed using C57BL/6 mice ([…], 12-14 weeks old, Harlan Sprague Dawley inc, Indianapolis, Ind., USA) by stereotaxis. The intracerebroventricular (ICV) injection was according to the intracerebroventricular injection system described in Craft et al., 2004b. The mice were grown in an accommodation for SPF (specific pathogen free) under 12 hours light/12 hours dark repeat, and supplied with water and feed as recommended by the accommodation for SPF. The study was reviewed and approved by the Institutional Animal Care and Use Committee (IACUC) of Asan Institute for Life Sciences, Asan Medical Center, which abides by the Institute of Laboratory Animal Resources (ILAR) guide.
(§2) The effect of KHG25967 on the change of pro-inflammatory cytokines was examined in vivo using 12-14 week old C57BL/6 mice. The control group was administered with PBS only for 2 weeks and then, further treated with PBS for 6 hours. The LPS group was administered with PBS only for 2 weeks and then, 10 mg/kg of LPS was administered into brain using streotaxis. The KHG25967 treated group was administered with 10 mg/kg or 20 mg/kg of KHG25967 every day for 2 weeks, and then, 10 mg/kg of LPS was administered into brain using streotaxis. […] The changes in the level of pro-inflammatory cytokines (interleukin-1beta and tumor necrosis factor-alpha) in the separated blood and brain were measured.

The test system of test [2] is tumor necrosis factor-alpha. In words: ELISA of tumor necrosis factor-alpha in LPS-treated BV-2 cells. Type of test: cell-based. Conditions: LPS 1 μg/ml for 2 hours, then 50 nM KHG25967 for 6 hours; compared to LPS only as 100%. Here is the method: (§3) Lipopolysaccharide (LPS)-treated cells (6-well of 5×10^5 cells/3 Ml, Fluka, Sigma-Aldrich, St. Louis, Mo., USA) were collected, and washed with phosphate-buffered saline (PBS). The cells were centrifuged, and then dissolved in pro-prep lysis buffer at 4° C. Interleukin-1 beta and tumor necrosis factor-alpha in the cell lysis solution wherein the cells were dissolved were measured by enzyme-linked immunosorbent analysis plate (R&D systems inc, Minneapolis, Minn., USA). The absorbance at 450 nm was measured using microplate reader. In addition, cytokine was measured using a cytokine measuring system (R&D systems inc, Minneapolis, Minn., USA).
(§4) BV-2 cells were pre-treated with 1 μg/ml of LPS (Fluka, Sigma-Aldrich, St. Louis, Mo., USA) for 2 hours, and then, further treated with 50 nM KHG25967 for 6 hours. The changed amounts of cytokines of tumor necrosis factor-alpha and interleukin-1beta were measured from lysate solution where the cells were dissolved in cell lysate solution (Intron Biotechnology, Seoul, Korea).

Test [3] has as its system interleukin-1beta. Kind of test: LPS-induced interleukin-1beta in brain and serum of C57BL/6 mice. Conditions: oral KHG25967 10 mg/kg or 20 mg/kg every day for 2 weeks, then LPS 10 mg/kg into brain, 6 hours. Type of test: in vivo. Here is the method: as §1, §2
For test [4], the system named is BV-2 cells. In words: Microscope analysis of cell shape, beta-amyloid treated BV-2 cells. The format is cell-based. Conditions: 50 nM KHG25967 for 24 hours after 50 μM beta-amyloid for 2 hours. Here is the method: (§5) BV-2 microglia cells (allotted from Pharmacology Division of Ajou University) were cultivated in DMEM (Dulbecco's Modified Eagle's Medium) supplemented with 5% fetal bovine serum (Invitrogen, Carlsbad, Calif., USA), sou/Ml penicillin (Invitrogen, Carlsbad, Calif., USA), and 50 μg/Ml streptomycin (Invitrogen, Carlsbad, Calif., USA) under the atmosphere condition with 5% CO2 and 95% air at 37° C. The medium was replaced once a day, the cells were plate-cultured in a density according to the scale of each experiment.
BV-2 cells were pre-treated with 50 μM of beta-amyloid, and 50 nM of KHG25967 compound was added to the beta-amyloid treated cells for 24 hours. For microscope analysis, BV-2 cells were used in 6-well plate at the density of 5×10^5 cells/well, for MTT analysis, BV-2 cells were used in 96-well plate at the density of 5×10^4 cells/well.
(§6) The obtained prevention effects of KHG25967 compound on toxicity induced by beta-amyloid in BV-2 cells were FIGS. 1A and 1b.

Test [5] has as its system interleukin-1beta. In words: ELISA of interleukin-1beta in LPS-treated BV-2 cells. The format is cell-based. Conditions: LPS 1 μg/ml for 2 hours, then 50 nM KHG25967 for 6 hours; compared to LPS only as 100%. The protocol: as §3, §4
Test [6] deals with BV-2 cells. Kind of test: Cell viability (MTT analysis) of beta-amyloid treated BV-2 cells. Conditions: for viability at 0.05 µM: Mus musculus. The format is cell-based. The protocol: Beta-amyloid (Aβ25-35, Sigma Chemical Co., St. Louis, Mo., USA) was diluted with aseptic desalted water and preservative solution (1 mM, GIBCO), and kept in aliquots at −70° C. To the treatment of beta-amyloid, beta-amyloid preservative solution was diluted to desired concentrations in a treatment medium (DMEM, GIBCO). The reagents were newly provided as a preservative solution (10 mM) under DMSO (dimethylsulfoxide), and diluted in treatment medium to desired concentrations.
as §5
BV-2 cells were plate-cultured in 96-well plate at the density of 5×10^4, the cell viability was measured according to a conventional MTT analysis method and lactate dehydrogenase (LDH) analysis method. The MTT analysis depends on the metabolism ability of mitochondria of living cell, and reflexes intracellular redox states. The cultured cells were treated with MTT a solution (final concentration: 1 mg/Ml) for 4 hours. Deep blue formazan crystal generated in the original cells was dissolved in a lysis buffer, and then, the absorbance was detected at 595 nm with microplate reader. The LDH activity released from the culture medium was detected, which was evaluated as a cell death index. The culture medium was added to a reagent (test, Sigma Chemical Co, St. Louis, Mo., USA) containing sodium lactate, NADH and sodium pyruvate, and then, the absorbance reduction by NADH at 340 nm was measured. The result was calculated assuming that the LDH activity in homogenate solution of the non-treated control is 100%.
[…] For microscope analysis, BV-2 cells were used in 6-well plate at the density of 5×10^5 cells/well, for MTT analysis, BV-2 cells were used in 96-well plate at the density of 5×10^4 cells/well.
as §6
For MTT analysis, BV-2 cells were used on 96-well plate in the density of 5×10^4 cells/well. The quantitative analysis results (unit: %) for the cell viability obtained by MTT analysis were shown in Table 2, wherein the values are represented by the average of three experiments per each concentration.

Read-outs that look alike come from different tables or passages of the source.

Turning to `O=C(O)CNC(=O)Nc1nc2ccccc2s1` [KHG25967, 2-(3-benzo[d]thiazole-2-ylureido)acetic acid], the “level of tumor necrosis factor-alpha in blood (serum, FIG. 4D)” value in test [1] was “no specific difference”. Besides, the “decrease of tumor necrosis factor-alpha level in brain (FIG. 4B)” value in test [1] (compared with LPS only as 100%) amounted to 42%. For the same compound, the “suppression of tumor necrosis factor-alpha level (FIG. 3B)” value in test [2] is recorded as 61%. Also, in test [3], the “level of interleukin-1beta in blood (serum, FIG. 4C)” value is “no specific difference”. The “decrease of interleukin-1beta level in brain (FIG. 4A)” value in test [3] (compared with LPS only as 100%) was found to be 55%. Moreover, in test [4], the “morphological characteristics of damaged cells (FIG. 1A)” value is “alleviated”. Also, in test [5], the “suppression of interleukin-1beta level (FIG. 3A)” value stood at 70%. Further, the “protection against nervous cell degeneration by beta-amyloid, compound pre-treated” value in test [6] (KHG25967 pre-treated prior to the addition of beta-amyloid, similar to treatment after beta-amyloid) is “shows a protective effect against nervous degeneration”. Besides, the viability at 0.05 µM worked out at 83% in test [6] (BV-2, 50 nM KHG25967 for 24 hours after 50 μM beta-amyloid for 2 hours, beta-amyloid only control 35%, read-out: cell viability (FIG. 1B, MTT analysis)) and 83% in test [6] (compound 50 nM for 24 hours after 50 μM beta-amyloid for 2 hours, BV-2 cells, average of three experiments, read-out: cell viability by MTT analysis).

Values taken from patent publication US9012481B2, “Benzoarylureido compounds, and composition for prevention or treatment of neurodegenerative brain disease containing the same” (Korea Institute of Science and Technology, priority 2009, dated 2015).
